# Measured values: ChEMBL document CHEMBL1201862, “PubChem BioAssay data set” (2004)
#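 Exposure lasted 48 hours, with cells grown in 96-well plates and compounds tested at five concentrations. Here, GI50 denotes the concentration required for 50% inhibition of growth.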 The source made the active and inactive calls. Cut-off read from the data, not from the text of the source: active = GI50 up to about 1.1 µM and inactive = higher.
# How the values were obtained:
# Test in all cases: NCI-60 cell line screen, 48 h
# [1] = tested on: SF-295
# [2] = tested on: UACC-62
# [3] = tested on: HCT-116
# [4] = tested on: UO-31
# [5] = tested on: OVCAR-8
# [6] = tested on: CCRF-CEM
# [7] = tested on: HOP-62
# [8] = tested on: DMS-114
# [9] = tested on: MOLT-4
# [10] = tested on: SN12C
# [11] = tested on: SK-OV-3
# [12] = tested on: M14
# [13] = tested on: NCI-H460
# [14] = tested on: Malme-3M
# [15] = tested on: SW-620
# [16] = tested on: K562
# [17] = tested on: NCI-H522
# [18] = tested on: SNB-75
# [19] = tested on: OVCAR-3
# [20] = tested on: A549
# [21] = tested on: SNB-19
# [22] = tested on: ACHN
# [23] = tested on: SR
# [24] = tested on: UACC-257
# [25] = tested on: OVCAR-4
# [26] = tested on: DMS-273
# [27] = tested on: DLD-1
# [28] = tested on: 786-0
# [29] = tested on: IGROV-1
# [30] = tested on: COLO 205
# [31] = tested on: KM12
# [32] = tested on: A498
# [33] = tested on: SF-268
# [34] = tested on: SK-MEL-5
# [35] = tested on: HCC 2998
# [36] = tested on: EKVX
# [37] = tested on: SF-539
# [38] = tested on: LXFL 529
# [39] = tested on: RPMI-8226
# [40] = tested on: CAKI-1
# [41] = tested on: LOX IMVI
# [42] = tested on: HL-60
# [43] = tested on: TK-10
# [44] = tested on: MCF7
# [45] = tested on: RXF 393
# [46] = tested on: XF498
smiles,measurement,setting,value
O=c1c2ccccc2oc2ccccc12.Oc1cccc2cccnc12,GI50,[1],2.23 µM (inactive)
same,GI50,[2],3.76 µM (inactive)
same,GI50,[3],2.56 µM (inactive)
same,GI50,[4],2.31 µM (inactive)
same,GI50,[5],2.36 µM (inactive)
same,GI50,[6],0.815 µM (active)
same,GI50,[7],7.43 µM (inactive)
same,GI50,[8],1.63 µM (inactive)
same,GI50,[9],0.607 µM (active)
same,GI50,[10],2.22 µM (inactive)
same,GI50,[11],< 0.01 µM (active)
same,GI50,[12],3.11 µM (inactive)
same,GI50,[13],0.966 µM (active)
same,GI50,[14],1.75 µM (inactive)
same,GI50,[15],1.77 µM (inactive)
same,GI50,[16],4.99 µM (inactive)
same,GI50,[17],12.9 µM (inactive)
same,GI50,[18],2.29 µM (inactive)
same,GI50,[19],5.53 µM (inactive)
same,GI50,[20],2.63 µM (inactive)
same,GI50,[21],3.36 µM (inactive)
same,GI50,[22],3.12 µM (inactive)
same,GI50,[23],2.73 µM (inactive)
same,GI50,[24],2.73 µM (inactive)
same,GI50,[25],5.89 µM (inactive)
same,GI50,[26],1.94 µM (inactive)
same,GI50,[27],1.76 µM (inactive)
same,GI50,[28],1.66 µM (inactive)
same,GI50,[29],3.73 µM (inactive)
same,GI50,[30],3.05 µM (inactive)
same,GI50,[31],5.3 µM (inactive)
same,GI50,[32],16.8 µM (inactive)
same,GI50,[33],2.75 µM (inactive)
same,GI50,[34],1.95 µM (inactive)
same,GI50,[35],1.88 µM (inactive)
same,GI50,[36],3.44 µM (inactive)
same,GI50,[37],2.36 µM (inactive)
same,GI50,[38],1.56 µM (inactive)
same,GI50,[39],5.41 µM (inactive)
same,GI50,[40],3.9 µM (inactive)
same,GI50,[41],1.49 µM (inactive)
same,GI50,[42],0.67 µM (active)
CC1[C@@H]2CC=C3[C@H]4CCC5Cc6nc7c(nc6C[C@@]5(C)C4(O)CC(=O)[C@]32CO[C@]12OC(C)(C)CC2O)CC1CC[C@@H]2C3=C[C@H]4O[C@@]5(O[C@@](C)(CO)C[C@@H]5O)C(C)[C@@]4(O)[C@]3(C)[C@@H](O)CC2[C@]1(C)C7 (stereo not given in full),GI50,[1],< 0.0001 µM (active)
same,GI50,[43],0.0204 µM (active)
same,GI50,[8],0.00011 µM (active)
same,GI50,[18],< 0.0001 µM (active)
same,GI50,[44],0.00194 µM (active)
same,GI50,[26],< 0.0001 µM (active)
same,GI50,[32],0.000342 µM (active)
same,GI50,[35],0.0748 µM (active)
same,GI50,[45],< 0.0001 µM (active)
same,GI50,[37],< 0.0001 µM (active)
same,GI50,[39],< 0.0001 µM (active)
same,GI50,[46],< 0.0001 µM (active)
same,GI50,[42],< 0.0001 µM (active)
